# Reference: ChEMBL document CHEMBL1201862, “PubChem BioAssay data set” (2004)
# Several values for one entry are separate records, joined by “and”; a condition that tells them apart may be missing. Equal entries are not always repeated. Activity calls are given as the source filed them.
# Tests used:
# [1] = target: T1, Tyrosine-protein phosphatase non-receptor type 7 (Homo sapiens, UniProt P35236); experiment: redox-active compounds inhibiting HePTP phosphatase – biochemical, fluorescence, mechanism study (AID 2068); type: functional
# T1 sequence (P35236 whole entry): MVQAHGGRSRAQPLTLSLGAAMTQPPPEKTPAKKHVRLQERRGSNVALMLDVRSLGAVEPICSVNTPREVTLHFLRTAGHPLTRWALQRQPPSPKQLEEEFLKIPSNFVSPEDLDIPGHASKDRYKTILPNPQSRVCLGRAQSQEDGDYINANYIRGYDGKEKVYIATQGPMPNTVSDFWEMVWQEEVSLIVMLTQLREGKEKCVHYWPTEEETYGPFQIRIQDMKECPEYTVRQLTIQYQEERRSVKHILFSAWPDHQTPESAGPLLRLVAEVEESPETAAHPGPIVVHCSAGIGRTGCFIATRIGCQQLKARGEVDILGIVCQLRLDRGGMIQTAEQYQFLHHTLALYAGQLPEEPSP
# [2] = target: T2, E3 ubiquitin-protein ligase XIAP (Homo sapiens, UniProt P98170); experiment: Counter Screen using XIAP-Bir3 for Chemical Antagonists of Bir1/2 domains of IAP-family anti-apoptotic proteins. [Related pubchem assays (depositor defined):AID1018, AID1449, AID1514, AID1638, AID1749, AID1750, AID488957, AID488963]
# [3] = target: T3, Kappa-type opioid receptor (Homo sapiens, UniProt P41145); experiment: SAR analysis of Antagonists of the Kappa Opioid Receptor (KOR) using an Image-Based Assay - Set 3. [Related pubchem assays (depositor defined):AID1777, AID1785]; type: functional
# Mu-type opioid receptor [4] = target: T4, Mu-type opioid receptor (Homo sapiens, UniProt P35372); experiment: SAR Analysis of Antagonists of the MOR Receptor using an Image-Based Assay - Set 3. [Related pubchem assays (depositor defined):AID1777, AID1785, AID1786, AID1966, AID2133, AID2136, AID2284, AID2285, AID2420]; type: functional
# [5] = target: T3, Kappa-type opioid receptor; experiment: SAR analysis of small molecule antagonists of the kappa opioid receptor via a luminescent beta-arrestin assay - Set 3. [Related pubchem assays (depositor defined):AID1777, AID1778, AID1785, AID1786, AID1966, AID2133, AID2136, AID2285, AID2495]; type: functional
# [6] = target: T5, Delta-type opioid receptor (Homo sapiens, UniProt P41143); experiment: SAR Analysis of Antagonists of the DOR Receptor using an Image-Based Assay - Set 3. [Related pubchem assays (depositor defined):AID1777, AID1785]; type: functional
# Troponin, cardiac muscle = Troponin, cardiac muscle (Homo sapiens, UniProt P19429+P45379+P63316); experiment: Fluorescence-based biochemical high throughput dose response assay for activators of the calcium sensitivity of cardiac Regulated Thin Filaments (RTF). [Related pubchem assays (depositor defined):AID493008, AID493018, AID504382, AID504383]; type: protein-complex assay
# [7] = target: T6, Short transient receptor potential channel 4 (Mus musculus, UniProt Q9QUQ5); experiment: potentiation of DAMGO-evoked TRPC4 calcium signal – cell-based, HEK293 TRPC4/mu-opioid, Fluo-4 calcium, EC20 DAMGO, dose response (AID 434941); type: functional
# T6 sequence (Q9QUQ5 whole entry): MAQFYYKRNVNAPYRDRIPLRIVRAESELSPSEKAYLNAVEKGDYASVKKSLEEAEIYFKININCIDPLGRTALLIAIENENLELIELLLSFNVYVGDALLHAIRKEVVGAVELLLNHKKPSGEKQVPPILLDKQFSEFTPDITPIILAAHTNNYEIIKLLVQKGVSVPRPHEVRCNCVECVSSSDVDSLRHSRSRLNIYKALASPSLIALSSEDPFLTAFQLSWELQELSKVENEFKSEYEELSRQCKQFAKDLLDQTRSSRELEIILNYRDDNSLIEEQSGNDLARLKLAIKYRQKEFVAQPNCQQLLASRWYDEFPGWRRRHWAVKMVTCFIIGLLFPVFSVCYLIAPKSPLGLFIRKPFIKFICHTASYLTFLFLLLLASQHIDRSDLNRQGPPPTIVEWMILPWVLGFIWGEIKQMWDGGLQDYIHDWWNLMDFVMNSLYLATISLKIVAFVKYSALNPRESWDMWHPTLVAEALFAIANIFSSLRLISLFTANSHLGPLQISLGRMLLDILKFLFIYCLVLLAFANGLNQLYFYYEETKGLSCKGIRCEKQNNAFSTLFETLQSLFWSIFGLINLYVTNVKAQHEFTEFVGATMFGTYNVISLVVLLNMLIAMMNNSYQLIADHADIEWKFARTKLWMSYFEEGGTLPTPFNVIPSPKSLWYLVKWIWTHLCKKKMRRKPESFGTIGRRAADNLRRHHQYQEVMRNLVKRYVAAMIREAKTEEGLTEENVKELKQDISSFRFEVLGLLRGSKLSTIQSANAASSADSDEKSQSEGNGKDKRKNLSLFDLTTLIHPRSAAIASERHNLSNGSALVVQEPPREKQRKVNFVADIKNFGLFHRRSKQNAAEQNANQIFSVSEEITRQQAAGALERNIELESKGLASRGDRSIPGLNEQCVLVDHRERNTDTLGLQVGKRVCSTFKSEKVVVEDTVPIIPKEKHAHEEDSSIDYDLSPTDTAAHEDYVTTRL
# [8] = target: T2, E3 ubiquitin-protein ligase XIAP; experiment: SAR analysis of Antagonists of XIAP-Bir3 domain of IAP-family anti-apoptotic proteins. [Related pubchem assays (depositor defined):AID1018, AID1449, AID1513, AID1514, AID1638]
# [9] = target: T2, E3 ubiquitin-protein ligase XIAP; experiment: SAR analysis of Antagonists of IAP-family anti-apoptotic proteins. [Related pubchem assays (depositor defined):AID1018, AID1449, AID1513, AID1514, AID1638]
# Hexokinase HKDC1 = target: T7, Hexokinase HKDC1 (Homo sapiens, UniProt Q2TB90); experiment: activation of HKDC1 glucose phosphorylation – biochemical, W721R variant, dose response (AID 504730); type: functional
# T7 sequence (Q2TB90 whole entry): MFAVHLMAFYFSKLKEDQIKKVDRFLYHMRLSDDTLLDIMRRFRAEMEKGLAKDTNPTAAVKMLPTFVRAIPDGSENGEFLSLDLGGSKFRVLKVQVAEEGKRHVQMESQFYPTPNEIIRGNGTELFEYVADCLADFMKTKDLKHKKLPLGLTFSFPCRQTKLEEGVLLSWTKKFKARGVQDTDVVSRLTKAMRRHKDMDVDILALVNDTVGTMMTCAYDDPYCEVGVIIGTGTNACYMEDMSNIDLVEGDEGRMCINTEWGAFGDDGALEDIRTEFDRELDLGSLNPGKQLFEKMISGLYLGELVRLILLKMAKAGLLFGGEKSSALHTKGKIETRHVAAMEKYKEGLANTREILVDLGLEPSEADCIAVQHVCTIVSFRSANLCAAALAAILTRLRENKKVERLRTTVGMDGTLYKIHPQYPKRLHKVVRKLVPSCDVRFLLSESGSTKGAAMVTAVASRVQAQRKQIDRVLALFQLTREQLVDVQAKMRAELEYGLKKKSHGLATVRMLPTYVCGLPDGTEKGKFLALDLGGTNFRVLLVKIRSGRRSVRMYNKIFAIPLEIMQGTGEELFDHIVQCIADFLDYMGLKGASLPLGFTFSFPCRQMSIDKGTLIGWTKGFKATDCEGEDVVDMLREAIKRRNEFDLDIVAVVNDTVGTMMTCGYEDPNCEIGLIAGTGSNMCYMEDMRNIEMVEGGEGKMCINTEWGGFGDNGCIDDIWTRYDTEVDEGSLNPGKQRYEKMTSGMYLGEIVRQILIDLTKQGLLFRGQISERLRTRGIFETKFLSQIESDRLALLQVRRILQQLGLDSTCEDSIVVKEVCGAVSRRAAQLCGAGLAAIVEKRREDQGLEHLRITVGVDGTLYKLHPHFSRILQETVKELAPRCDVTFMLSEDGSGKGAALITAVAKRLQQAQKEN
# fMet-Leu-Phe receptor = target: T8, fMet-Leu-Phe receptor (Homo sapiens, UniProt P21462); experiment: formyl peptide receptor binders – dose response (AID 519); type: functional
# T8 sequence (P21462 whole entry): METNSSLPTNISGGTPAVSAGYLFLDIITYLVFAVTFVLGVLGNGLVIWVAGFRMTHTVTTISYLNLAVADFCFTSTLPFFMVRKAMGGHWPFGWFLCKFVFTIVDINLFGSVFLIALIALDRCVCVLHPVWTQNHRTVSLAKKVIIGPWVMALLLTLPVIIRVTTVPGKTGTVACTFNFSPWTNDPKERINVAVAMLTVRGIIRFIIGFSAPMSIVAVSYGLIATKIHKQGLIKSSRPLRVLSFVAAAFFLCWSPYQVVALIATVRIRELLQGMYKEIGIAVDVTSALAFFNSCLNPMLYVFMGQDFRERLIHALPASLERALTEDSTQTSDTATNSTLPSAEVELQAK
# [10] = target: T9, Runt-related transcription factor 1/Core-binding factor subunit beta (Homo sapiens, UniProt Q01196+Q13951); experiment: Runt domain/CBFb-SMMHC interaction disruptors – biochemical, TR-FRET (AID 1438); type: protein assay
# [11] = target: T9, Runt-related transcription factor 1/Core-binding factor subunit beta; experiment: disruptors of Runt domain/CBFb-SMMHC interaction – biochemical, FRET, Cerulean-Runt, Venus-CBFb-SMMHC, uHTS, […] (AID 1434); type: protein assay
# T-cell = experiment: loss of vesicle association with mouse CD8+ T cells – mouse 2C CD8+ T cells, flow cytometry, dose response (AID 485284); type: functional
# [12] = target: Type-1 angiotensin II receptor (Homo sapiens, UniProt P30556); experiment: agonist activity at AGTR1 – cell-based, uHTS hits, selectivity assay for APJ receptor agonist project, dose response (AID 488865); type: functional;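 further: beta-arrestin recruitment to AT1 measured by enzyme fragment complementation luminescence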
# [13] = target: T6, Short transient receptor potential channel 4; experiment: calcium entry via TRPC4 opening agents – cell-based, HEK293 TRPC4/mu-opioid, Fluo-4 calcium, dose response (AID 434937); type: functional
# INS1 = experiment: INS-1E survival protection against cytokine death – cell-based, luminescence, retest, dose response (AID 449756); type: functional; settings: Rattus norvegicus;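 further: cell death triggered by IL-1 beta plus TNF-alpha plus IFN-gamma mixture; protective hits raise ATP signal compared with cytokine alone wells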
# [14] = target: T5, Delta-type opioid receptor; experiment: Counterscreen for agonists of heterodimerization of the mu 1 (OPRM1) and delta 1 (OPRD1) opioid receptors: Luminescence-based cell-based high throughput dose response assay to identify agonists of OPRD1 homodimerization. [Related pubchem assays (depositor defined):AID504326, AID504355, AID504692, AID504904, AID504905]; type: functional
# [15] = target: T10, Ubiquitin-conjugating enzyme E2 N (Homo sapiens, UniProt P61088); type: functional
# T10 sequence (P61088 whole entry): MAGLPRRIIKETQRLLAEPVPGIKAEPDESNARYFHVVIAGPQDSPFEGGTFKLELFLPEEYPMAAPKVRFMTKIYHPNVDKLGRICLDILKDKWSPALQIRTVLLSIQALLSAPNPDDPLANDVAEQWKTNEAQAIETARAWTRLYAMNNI
# Nonstructural protein 1 = Nonstructural protein 1 (Influenza A virus, UniProt Q194T2); type: functional, Influenza A virus (A/California/07/2009(H1N1))
# [16] = target: T10, Ubiquitin-conjugating enzyme E2 N; type: functional; remark: listed apart in the source
# Mu-type opioid receptor [17] = target: T4, Mu-type opioid receptor; experiment: Counterscreen for agonists of heterodimerization of the mu 1 (OPRM1) and delta 1 (OPRD1) opioid receptors: Luminescence-based cell-based high throughput dose response assay to identify agonists of OPRM1 homodimerization.; type: functional
# [18] = target: 5-hydroxytryptamine receptor 5A (Homo sapiens, UniProt P47898); experiment: Counterscreen for agonists of OPRM1-OPRD1 heterodimerization: luminescence-based cell-based high throughput dose response assay to identify agonists of 5-hydroxytryptamine (serotonin) 5A receptor (HTR5A). [Related pubchem assays (depositor defined):AID504326, AID504355, AID504692, AID504904, AID504905]; type: functional
# Bcl-2-related protein A1 = Bcl-2-related protein A1 (Mus musculus, UniProt Q07440); type: functional;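 further: confirmatory dose–response counterscreen on Bfl-1, used to check hits from a UBC13 polyubiquitin inhibitor campaign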
smiles,measurement,setting,value
O=C(NCc1ccco1)Nc1ccc2nc(-c3ccco3)c(-c3ccco3)nc2c1,IC50,[1],> 50 µM (inactive)
CC(C)(C)c1ccc(C(CC(=O)O)NC(=O)Cc2ccc(F)cc2)cc1 (stereo not given),IC50,[2],> 20 µM (inactive)
O=C(NCCN(Cc1ccccc1)Cc1ccccc1)c1ccc(CNS(=O)(=O)c2ccc(Br)cc2)cc1,IC50,[3],6.08 µM (active)
same,IC50,Mu-type opioid receptor [4],> 32 µM (inactive)
same,IC50,[5],> 20 µM (inactive)
same,IC50,[6],> 32 µM (inactive)
Cc1ccc(C)c(N2CCN(C(=O)CN3C(S)=NC(C)(C)CC3C)CC2)c1 (stereo not given),EC50,"Troponin, cardiac muscle",> 71.5 µM (inactive)
O=C(Nc1ccccc1)C1=C[C@H](C2CCCCC2)C[C@H](OCc2ccc(CO)cc2)O1,EC50,[7],2.99 µM (active)
CC[C@H](NC(=O)[C@H](C)NC)C(=O)N1CCC[C@H]1C(=O)NC1CCCc2ccccc21 (stereo not given in full),IC50,[8],530 nM (active) and 980 nM (active)
same,IC50,[9],9.7 µM (active) and 13.7 µM (active)
COCc1cc(C2C(C(=O)c3ccco3)=C(O)C(=O)N2CCOCCO)ccc1O (stereo not given),EC50,Hexokinase HKDC1,> 80 µM (inactive)
same,Ki,fMet-Leu-Phe receptor,29.7 µM (inactive)
O=C(NCc1ccccn1)c1cc2c(ccc3ccccc32)oc1=O,IC50,[10],> 100 µM (inactive)
same,IC50,[11],1.33 µM (active)
CCCCn1nc(C(=O)N2CCN(S(=O)(=O)c3ccccc3)CC2)c2ccccc2c1=O,EC50,T-cell,10.3 µM (active)
Cc1ccc2nc(N(CCCN(C)C)C(=O)c3ccc(S(=O)(=O)N4CCc5ccccc5C4)cc3)sc2c1,EC50,[12],57.8 µM (inactive)
same,EC50,[13],3.35 µM (active)
same,AC50,INS1,6.05 µM (active)
same,EC50,[14],> 92.5 µM (inactive)
same,IC50,[15],7.23 µM (active)
same,IC50,Nonstructural protein 1,> 50 µM (active)
same,IC50,[16],11 µM (active)
same,EC50,Mu-type opioid receptor [17],10.2 µM (inactive)
same,EC50,[18],> 92.5 µM (inactive)
same,IC50,Bcl-2-related protein A1,> 20 µM (inactive)
